Test results published in patent US20240399000A1, “GADOLINIUM-BASED COMPOUND AND MRI CONTRAST AGENT COMPRISING SAME” (KYUNGPOOK NATIONAL UNIVERSITY INDUSTRY-ACADEMIC COOPERATION …, priority 2021, published 2024).

Columns and labels:
[1] = Measurement of relaxivity (r1, r2) in 3T MRI phantom; assay type: physicochemical; settings: tertiary distilled water, 0.0625-1 mM, linear regression, in mM-1 s-1 (unit assumed)
Method: The relaxivity (r1, r2) of each of synthesized Gd-DO3A-Pca, and cyclic commercial contrast agents Gadovist® and Dotarem® as comparison groups material was measured. Specifically, a phantom was prepared by diluting the gadolinium complex in tertiary distilled water to five concentrations (0.0625, 0.125, 0.25, 0.5, 1 mM), and then T1 and T2 relaxation times were measured in 3T MRI. Thus, R (Relaxation rate=1/T) of each concentration was calculated and the relaxivity (r1, r2) result of the gadolinium complex was obtained through linear regression analysis (see FIG. 3) and shown in a following Table 1.

amyloid beta polymer = amyloid beta polymer (Homo sapiens, UniProt P05067); assay: Amyloid beta polymer targeting ability, MRI phantom experiment (9.4T); assay type: binding; settings: incubated with amyloid beta polymer 37° C. 24 hours, washed, 9.4T MR
Method: (1) 221.5 uL of HFIP was added to 1 mg of amyloid beta at a concentration of 1 mM, followed by shaking for 1 hour at room temperature using a shaker to remove preaggregation. (2) The amyloid beta from which the preaggregation was removed was dried, and 221.5 uL of DMSO was added thereto to achieve a 1 mM concentration. Using a mixer and sonicator, a suspension thereof was prepared, and 878.5 uL of PBS (1×, pH 7.4) was added thereto to achieve a 0.2 mM concentration. (3) After incubating the suspension at 37° C. for 4 days using a shaker, the polymerized amyloid beta polymer was dispensed by 200 μL. Then, 20 μL of a solution in which each of Gd-DO3A-Pca and the commercial contrast agent (Gadovist®) was dissolved in PBS at 2 mM concentration was added thereto. The incubation was carried out thereon at 37° C. for 24 hours using a shaker. (4) After 24 hours has elapsed, centrifugation was performed thereon to remove the supernatant therefrom. The amyloid beta polymer was washed using PBS. 200 μL of a solution of PBS:DMSO=9:1 was added to a pellet to prepare an MRI phantom sample. As a control, a phantom sample obtained by incubating only the amyloid beta polymer was used. […]

amyloid beta polymer, sequence (P05067 672-713 limits assumed): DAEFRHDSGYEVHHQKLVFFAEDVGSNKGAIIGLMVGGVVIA

| SMILES | relaxivity r1 [1] | relaxivity r2 [1] | contrast enhancement / signal intensity of phantom vs phantom of only amyloid beta polymer (amyloid beta polymer) |
| --- | --- | --- | --- |
| O=C([O-])CN1CCN(CC(=O)[O-])CCN([C@H](CO)[C@H](O)CO)CCN(CC(=O)[O-])CC1.[Gd+3] (racemic) [Gadovist ®] | 3.9 ± 0.1 | 4.8 ± 0.1 | little difference in contrast enhancement effect |
| CNC[C@H](O)[C@@H](O)[C@H](O)[C@H](O)CO.O=C([O-])CN1CCN(CC(=O)[O-])CCN(CC(=O)O)CCN(CC(=O)[O-])CC1.[Gd+3] [Dotarem ®] | 3.4 ± 0.1 | 3.9 ± 0.2 | – |
